This experiment relates to P388 leukemia ip, CD2F1 mice, survival T/C. In words: NCI In Vivo Anticancer Drug Screen. Data for tumor model P388 Leukemia (intraperitoneal) in CD2F1 (CDF1) mice. Conditions: endpoint: median survival time, higher = longer survival. The gist of the method:
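Mice carrying the transplanted tumor received test compound or vehicle. Survival was recorded in each group, and the value is the treated-group measurement divided by that of the vehicle-treated control group.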

Where [1] appears, read: dose: 12.5 mg/kg/injection, schedule: Q01DX009 (ip), vehicle: saline.
[2] abbreviates: dose: 25.0 mg/kg/injection, schedule: Q01DX009 (ip), vehicle: saline.
[3] abbreviates: dose: 50.0 mg/kg/injection, schedule: Q01DX009 (ip), vehicle: saline.
The mark [4] stands for this setting: dose: 100.0 mg/kg/injection, schedule: Q01DX009 (ip), vehicle: saline.
Setting [5] is: dose: 25.0 mg/kg/injection, schedule: Q01DX009 (ip), vehicle: Klucel (hydroxypropylcellulose) (HPC).
[6] abbreviates: dose: 50.0 mg/kg/injection, schedule: Q01DX009 (ip), vehicle: Klucel (hydroxypropylcellulose) (HPC).
Where [7] appears, read: dose: 100.0 mg/kg/injection, schedule: Q01DX009 (ip), vehicle: Klucel (hydroxypropylcellulose) (HPC).
Setting [8] is: dose: 200.0 mg/kg/injection, schedule: Q01DX009 (ip), vehicle: Klucel (hydroxypropylcellulose) (HPC).

The text below walks through data of PubChem BioAssay AID330 (DTP/NCI, 2004).

Several values for one entry are separate records, joined by “and”; a condition that tells them apart may be missing. Identical values can stand only once. Inconclusive results and toxic doses are left out.

Take `COC(=O)c1cc(=O)n(-c2cccc(OC)c2)c(SC)n1`: the T/C is, setting by setting: (dose: 25.0 mg/kg/injection, schedule: Q04DX002 (ip), vehicle: Klucel (hydroxypropylcellulose) (HPC)) 107 % of control; (dose: 50.0 mg/kg/injection, schedule: Q04DX002 (ip), vehicle: Klucel (hydroxypropylcellulose) (HPC)) 103 % of control; (dose: 100.0 mg/kg/injection, schedule: Q04DX002 (ip), vehicle: Klucel (hydroxypropylcellulose) (HPC)) 104 % of control and 105 % of control.
With `CN1CCC2OC2C1=NC#N` (stereo not given), the T/C under setting [1] is 102 % of control; the T/C under setting [2] was 101 % of control; the T/C under setting [3] is 105 % of control; the T/C under setting [4] is 101 % of control; the T/C (dose: 200.0 mg/kg/injection, schedule: Q01DX009 (ip), vehicle: saline) was 97 % of control.
On to `CN1C(=O)CC(=O)N(c2ccccc2)c2cc(Cl)ccc21`, for which the T/C is, setting by setting: (dose: 50.0 mg/kg/injection, schedule: Q01DX005 (ip), vehicle: Klucel (hydroxypropylcellulose) (HPC)) 103 % of control; (dose: 100.0 mg/kg/injection, schedule: Q01DX005 (ip), vehicle: Klucel (hydroxypropylcellulose) (HPC)) 97 % of control.
Consider `ClC(Cl)=Nc1ccccc1`, for which the T/C under setting [5] is 103 % of control, the T/C under setting [6] was 103 % of control, the T/C under setting [7] is 110 % of control and the T/C under setting [8] was 93 % of control.
For `CSc1nc2[nH]cnc(=S)c2[nH]1`, the T/C reads like this: (dose: 6.25 mg/kg/injection, schedule: Q04DX003 (ip), vehicle: saline with Tween-80) 90 % of control; (dose: 12.5 mg/kg/injection, schedule: Q04DX003 (ip), vehicle: saline with Tween-80) 90 % of control; (dose: 25.0 mg/kg/injection, schedule: Q04DX003 (ip), vehicle: saline with Tween-80) 109 % of control.
As to `Cl[Si]1(Cl)CCCC1`, the T/C is 99 % of control (dose: 50.0 mg/kg/injection, schedule: Q01DX009 (ip), vehicle: other); 100 % of control (dose: 100.0 mg/kg/injection, schedule: Q01DX009 (ip), vehicle: other); 99 % of control (dose: 200.0 mg/kg/injection, schedule: Q01DX009 (ip), vehicle: other).
Take `Clc1nc(-c2ccccc2)ns1`: the T/C by setting is: under setting [5], 86 % of control; under setting [6], 106 % of control; under setting [7], 102 % of control; under setting [8], 104 % of control.
`Cc1ccc(O)c(C(c2cc(C)ccc2O)c2cc(C)ccc2O)c1`: the T/C is 107 % of control (dose: 25.0 mg/kg/injection, schedule: Q01DX009 (ip), vehicle: saline with Tween-80); 105 % of control and 113 % of control (dose: 50.0 mg/kg/injection, schedule: Q01DX009 (ip), vehicle: saline with Tween-80); 101 % of control (dose: 100.0 mg/kg/injection, schedule: Q01DX009 (ip), vehicle: saline with Tween-80).
Take `CC(CC/C=C/CO)C1CC(OS(=O)(=O)O)C2(O)C1(C)CCC1C3CCC(O)C(O)C3C(O)CC12O` (stereo not given): the T/C (dose: 5.0 mg/kg/injection, schedule: Q01DX005 (ip), vehicle: Klucel (hydroxypropylcellulose) (HPC)) is 100 % of control; the T/C (dose: 10.0 mg/kg/injection, schedule: Q01DX005 (ip), vehicle: Klucel (hydroxypropylcellulose) (HPC)) is 106 % of control; the T/C (dose: 20.0 mg/kg/injection, schedule: Q01DX005 (ip), vehicle: Klucel (hydroxypropylcellulose) (HPC)) is 98 % of control; the T/C (dose: 40.0 mg/kg/injection, schedule: Q01DX005 (ip), vehicle: Klucel (hydroxypropylcellulose) (HPC)) was 95 % of control.
As for `CCOC(=O)C(C)c1nnc(-c2ccc(OC)cc2)[nH]c1=O` (stereo not given), the T/C reads like this: under setting [6], 94 % of control; under setting [7], 97 % of control; under setting [8], 99 % of control.
Consider `Cc1ccc(C(=O)OC(CCN(C)C)c2ccccc2)cc1` (stereo not given), for which the T/C runs as follows: under setting [3], 109 % of control; under setting [4], 106 % of control.
`CC(=O)NC(CCc1ccc(Cl)c(Cl)c1)c1cccc(O)c(=O)c1` (stereo not given): the T/C (dose: 12.5 mg/kg/injection, schedule: Q01DX009 (ip), vehicle: Klucel (hydroxypropylcellulose) (HPC)) was 105 % of control and 110 % of control; the T/C under setting [5] was 106 % of control and 122 % of control.
Turning to `CC[PH+](CC)CC.CC[PH+](CC)CC.[Au]`, the T/C was 104 % of control and 91 % of control (dose: 0.15 mg/kg/injection, schedule: Q01DX009 (ip), vehicle: water); 100 % of control and 107 % of control (dose: 0.31 mg/kg/injection, schedule: Q01DX009 (ip), vehicle: water); 118 % of control and 122 % of control (dose: 0.62 mg/kg/injection, schedule: Q01DX009 (ip), vehicle: water); 118 % of control (dose: 1.25 mg/kg/injection, schedule: Q01DX009 (ip), vehicle: water).
Turning to `O=S(=O)(O)O.[O]=[V]`, the T/C is 90 % of control (dose: 6.25 mg/kg/injection, schedule: Q01DX009 (ip), vehicle: saline); 86 % of control under setting [1]; 100 % of control (dose: 12.5 mg/kg/injection, schedule: Q04DX003 (ip), vehicle: saline); 90 % of control under setting [2]; 100 % of control (dose: 25.0 mg/kg/injection, schedule: Q04DX003 (ip), vehicle: saline).
For the compound `CC1C(=O)OC2C1CCC1(C)CCC(=O)C(C)C21` (stereo not given), the T/C (dose: 100.0 mg/kg/injection, schedule: Q04DX002 (ip), vehicle: saline with Tween-80) was 101 % of control.
As to `Cc1cc(=O)c2cc3ccc4cccc5ccc(c2[nH]1)c3c45`, the T/C (dose: 50.0 mg/kg/injection, schedule: Q01DX005 (ip), vehicle: saline with Tween-80) is 98 % of control; the T/C (dose: 100.0 mg/kg/injection, schedule: Q01DX005 (ip), vehicle: saline with Tween-80) is 103 % of control; the T/C (dose: 200.0 mg/kg/injection, schedule: Q01DX005 (ip), vehicle: saline with Tween-80) is 100 % of control.
Consider `O=C1NC2(CCCCC2)C(=O)N1CCCCCN(CCCl)CCCl`, for which the T/C runs as follows: (dose: 1.5 mg/kg/injection, schedule: Q01DX005 (ip), vehicle: saline) 111 % of control; (dose: 3.0 mg/kg/injection, schedule: Q01DX005 (ip), vehicle: saline) 119 % of control; (dose: 40.0 mg/kg/injection, schedule: Q01DX005 (ip), vehicle: saline) 160 % of control.
Consider `CCN1C=C/C(=C\C=C/c2cc[n+](CC)c3ccccc23)c2ccccc21`, for which the T/C (dose: 0.15 mg/kg/injection, schedule: Q04DX003 (ip), vehicle: saline) was 118 % of control; the T/C (dose: 0.22 mg/kg/injection, schedule: Q04DX003 (ip), vehicle: saline) is 118 % of control; the T/C (dose: 0.33 mg/kg/injection, schedule: Q04DX003 (ip), vehicle: saline) is 122 % of control.
Take `O=C1/C(=C/c2ccccc2)CNC/C1=C\c1ccccc1`: the T/C by setting is: (dose: 60.0 mg/kg/injection, schedule: Q01DX005 (ip), vehicle: Klucel (hydroxypropylcellulose) (HPC)) 102 % of control; (dose: 120.0 mg/kg/injection, schedule: Q01DX005 (ip), vehicle: Klucel (hydroxypropylcellulose) (HPC)) 111 % of control; (dose: 240.0 mg/kg/injection, schedule: Q01DX005 (ip), vehicle: Klucel (hydroxypropylcellulose) (HPC)) 116 % of control.
Turning to `Cn1nc(-c2ccccc2)c(-c2ccccc2)c(C#N)c1=O`, the T/C was 109 % of control (dose: 25.0 mg/kg/injection, schedule: Q04DX002 (ip), vehicle: distilled water + Tween-80); 102 % of control (dose: 50.0 mg/kg/injection, schedule: Q04DX002 (ip), vehicle: distilled water + Tween-80); 101 % of control (dose: 100.0 mg/kg/injection, schedule: Q04DX002 (ip), vehicle: distilled water + Tween-80); 100 % of control (dose: 200.0 mg/kg/injection, schedule: Q04DX002 (ip), vehicle: distilled water + Tween-80).
Consider `CN=C(NC(C)C)c1ccccc1`, for which the T/C is, setting by setting: under setting [1], 91 % of control; under setting [2], 88 % of control; under setting [3], 104 % of control and 88 % of control.
On to `CNC(=O)Nc1cc2ccccc2o1`, for which the T/C runs as follows: (dose: 100.0 mg/kg/injection, schedule: Q04DX003 (ip), vehicle: saline with Tween-80) 110 % of control; (dose: 200.0 mg/kg/injection, schedule: Q04DX003 (ip), vehicle: saline with Tween-80) 100 % of control; (dose: 400.0 mg/kg/injection, schedule: Q04DX003 (ip), vehicle: saline with Tween-80) 105 % of control.
